Where “and” joins values, the source holds several entries; their conditions need not be identical. Equal entries are not always repeated.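 Results reflect a 48-hour exposure of cells in 96-well plates to compound at five concentrations. Abbreviation: GI50, concentration required for 50% inhibition of growth. TGI is the concentration that stops growth completely.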

Test systems include A498 renal; HCT-15 colon; A549 NSCLC; MCF7 breast; SK-MEL-28 melanoma; M14 melanoma; SF-295 CNS; DU-145 prostate; T-47D breast; NCI-H460 lung.
What all share (assay): growth of human tumour cells (NCI), 48 h

Consider `OC1C=C2C3CN(Cc4cc5c(cc43)OCO5)[C@H]2C[C@@H]1O` (stereo partly drawn), for which the TGI was 39.9 µM with A498 renal; 34.1 µM in the test with HCT-15 colon; greater than 100 µM in the test with A549 NSCLC; 22.2 µM in the test on MCF7 breast; greater than 100 µM with SK-MEL-28 melanoma; 25 µM in the test with M14 melanoma. Besides, the TGI with SF-295 CNS is greater than 100 µM; in the test on DU-145 prostate it was 71.2 µM; with T-47D breast, 6.54 µM; in the test with NCI-H460 lung, 13.2 µM.
`O=c1c2c([nH]c3nccn13)CCCC2`: the TGI in the test on A498 renal, in the test with HCT-15 colon, in the test with A549 NSCLC, in the test with MCF7 breast, with SK-MEL-28 melanoma and in the test with M14 melanoma was greater than 10 µM throughout. Also, the TGI in the test with SF-295 CNS, in the test on DU-145 prostate, in the test with T-47D breast and in the test with NCI-H460 lung was greater than 10 µM in each case.
Take `O=C1c2ccccc2-c2ccc(O)cc21`: the TGI with A498 renal came to 41.8 µM; in the test with HCT-15 colon, 49.6 µM; in the test on A549 NSCLC, 88 µM; with MCF7 breast it was 67.2 µM; with SK-MEL-28 melanoma, 45.8 µM; in the test with M14 melanoma it was 72.7 µM. The TGI in the test on SF-295 CNS was found to be 96.2 µM; with DU-145 prostate, 49.1 µM; in the test on T-47D breast, 44.8 µM; in the test on NCI-H460 lung it was 76.3 µM.
Turning to `S=C(NCCCCCCNC(=S)Nc1c2ccccc2nc2ccccc12)Nc1c2ccccc2nc2ccccc12`, the TGI in the test on A498 renal, in the test on HCT-15 colon, in the test with A549 NSCLC, with MCF7 breast, in the test with SK-MEL-28 melanoma and in the test with SF-295 CNS was greater than 100 µM each time. Also, the TGI in the test with NCI-H460 lung was greater than 100 µM.
On to `COc1nc(C#CCCCC#N)nc(OC)n1`, for which the TGI in the test with A498 renal was 37.6 µM; in the test on HCT-15 colon, 18.3 µM; with A549 NSCLC it was 31.9 µM; in the test with MCF7 breast, 22.1 µM; in the test on SK-MEL-28 melanoma it was 34.8 µM; with M14 melanoma, 47.8 µM. The TGI was 84.6 µM with SF-295 CNS, 23.3 µM in the test on DU-145 prostate, greater than 100 µM in the test on T-47D breast and 89.1 µM with NCI-H460 lung.
In the case of `COc1ccc(OC)c2sc(N3C(=O)/C(=C/c4ccccc4S)N=C3c3ccccc3)nc12`, the TGI in the test with A498 renal was greater than 100 µM; in the test on HCT-15 colon, greater than 100 µM; in the test with A549 NSCLC it was greater than 100 µM; with MCF7 breast, 36.5 µM; in the test with SK-MEL-28 melanoma, greater than 100 µM; with M14 melanoma it was greater than 100 µM. Also, the TGI with SF-295 CNS, with DU-145 prostate, in the test on T-47D breast and in the test with NCI-H460 lung was greater than 100 µM in each case.
In the case of `CCC(C)C(NC(=O)C(CCCCN)NC(=O)C(NC(=O)C(CCC(N)=O)NC(=O)C(CCCNC(=N)N)NC(C)=O)C(C)CC)C(=O)NC(Cc1c[nH]c2ccccc12)C(=O)NC(Cc1ccccc1)C(=O)NC(CCC(N)=O)C(=O)NC(CC(N)=O)C(=O)NC(CCCNC(=N)N)C(=O)NC(CCCNC(=N)N)C(=O)NC(CCSC)C(=O)NC(CCCCN)C(=O)NC(Cc1c[nH]c2ccccc12)C(=O)NC(CCCCN)C(=O)NC(CCCCN)C(N)=O` (stereo not drawn), the TGI in the test on A498 renal, with HCT-15 colon, in the test with A549 NSCLC, in the test with MCF7 breast, with SK-MEL-28 melanoma and in the test with M14 melanoma was greater than 50 µM throughout. Also, the TGI in the test with SF-295 CNS, in the test on DU-145 prostate, in the test on T-47D breast and in the test with NCI-H460 lung was greater than 50 µM each time.
Turning to `COC1(OC)C[C@H](C)[C@@]23O[C@]24c2cc(O)c5c(c2N[C@H]3C#C/C=C\C#C[C@]14O)C(=O)c1ccccc1C5=O`, the GI50 with A498 renal was 0.005 µM; with HCT-15 colon, 0.0118 µM; in the test with A549 NSCLC, less than 0.001 µM; in the test with SK-MEL-28 melanoma it was 0.0273 µM; in the test with M14 melanoma, 0.00194 µM; in the test with DU-145 prostate, 0.00164 µM. Further, the figures for the GI50 in the test on T-47D breast and in the test on NCI-H460 lung were 0.0104 µM and 0.005 µM, respectively. The TGI is 0.00964 µM and 0.0459 µM with A498 renal; 0.24 µM and 0.543 µM in the test with HCT-15 colon; 0.0489 µM and 0.0352 µM with A549 NSCLC; 0.234 µM and 0.087 µM with SK-MEL-28 melanoma; 0.0176 µM and 0.0111 µM with M14 melanoma; 0.0076 µM with SF-295 CNS. The TGI was 0.00686 µM and 0.048 µM with DU-145 prostate; 0.0774 µM and 0.455 µM in the test with T-47D breast.
With `CC(=O)OCCC[C@@H]1C(=C(C)C)CCC2[C@@]1(C)CC[C@@]1(C)C[C@](C)(CCC=C(C)C)CC[C@]21C` (stereo partly drawn), the TGI with A498 renal, in the test with HCT-15 colon, in the test on A549 NSCLC, in the test with MCF7 breast, in the test on SK-MEL-28 melanoma and in the test with M14 melanoma was greater than 100 µM throughout. Further, the TGI in the test with SF-295 CNS, in the test on DU-145 prostate, in the test on T-47D breast and with NCI-H460 lung was greater than 100 µM in each case.
In the case of `CN(C)CCNc1c([N+](=O)[O-])cc2c3c(cccc13)C(=O)N(CCN(C)C)C2=O`, the TGI in the test with A498 renal was 4.34 µM; with HCT-15 colon, 5.54 µM; in the test on MCF7 breast, greater than 20.4 µM; in the test with SK-MEL-28 melanoma, 12.9 µM; in the test on SF-295 CNS it was 6.69 µM; in the test with NCI-H460 lung, 2.26 µM.
With `Cc1c2c(cc3c1[nH]c1ccccc13)C(c1ccc(F)cc1)=NCC2`, the TGI turned out to be 4.73 µM in the test with A498 renal; 12.4 µM in the test on HCT-15 colon; 6.47 µM in the test with A549 NSCLC; 7.78 µM in the test on MCF7 breast; 4.74 µM in the test with SK-MEL-28 melanoma; 2.45 µM in the test with SF-295 CNS. In the test with NCI-H460 lung, this molecule had a TGI of 2.45 µM.
Take `O=C(NN1C(=O)/C(=C/c2ccc(Cl)cc2)N=C1c1ccccc1)c1c(Cl)c(Cl)c(Cl)c(Cl)c1-c1nc2ccccc2[nH]1`: the TGI was 44.5 µM with A498 renal; 28.3 µM in the test on HCT-15 colon; greater than 100 µM with A549 NSCLC; 60.3 µM in the test with MCF7 breast; greater than 100 µM in the test on SK-MEL-28 melanoma; 68.8 µM with M14 melanoma. Further, the TGI with SF-295 CNS was greater than 100 µM; in the test with DU-145 prostate, 61.9 µM; in the test on T-47D breast, 9.72 µM; with NCI-H460 lung, 16.2 µM.
Consider `O=C1OC(c2ccccc2)=N/C1=C/c1cccs1`, for which the TGI with HCT-15 colon, with A549 NSCLC, with MCF7 breast, in the test with SK-MEL-28 melanoma, with M14 melanoma and in the test on SF-295 CNS was greater than 100 µM throughout. The molecule further showed a TGI with NCI-H460 lung greater than 100 µM.
